Measurements as given in US5272144A, “Aryloxy-, arylthio-, heteroaryloxy-, heteroarylthio-alkenylene derivatives of amines and pharmaceutical use” (Farmitalia Carlo Erba s.r.l., priority 1988, dated 1993).

Experiments:
[1] = tested on: reserpine-induced blepharospasm; assay: prevention of reserpine-induced blepharospasm in mice (antidepressant activity); format: in vivo; settings: Mus musculus, po, 1 h, per os, 30 min before reserpine 2.4 mg/kg endoperitoneally, blepharospasm scored one hour after reserpine, read-out: BLEPH/ED50 (blepharospasm)
Protocol: (§1) The antidepressant activity was evaluated for example in mice on the basis of the prevention of reserpine-induced blepharospasm and hypothermia.

[2] = tested on: reserpine-induced hypothermia; assay: prevention of reserpine-induced hypothermia in mice (antidepressant activity); format: in vivo; settings: Mus musculus, po, 4 h, per os, 30 min before reserpine 2.4 mg/kg endoperitoneally, rectal temperature four hours after reserpine, read-out: HYPOTH/ED50 (hypothermia)
Protocol: as §1

Structure (SMILES) | ED50 [1] | ED50 [2]
CNC/C=C(\Oc1ccc(Cl)c(Cl)c1)c1ccccc1 [3-Cl 4-Cl H H H CH3 Z, α-(3,4-dichlorophenoxy)-α-phenyl-β-methylaminomethyl-ethylene] | 1.2 mg/kg | 1.3 mg/kg
CNC/C=C(/Oc1ccccc1Cl)c1ccccc1 [H 2-Cl H H H CH3 E, α-(2-chlorophenoxy)-α-phenyl-β-methylaminomethyl-ethylene] | 1.1 mg/kg | 1.2 mg/kg
CNC/C=C(\Oc1ccccc1Cl)c1ccccc1 [H 2-Cl H H H CH3 Z, α-(2-chlorophenoxy)-α-phenyl-β-methylaminomethyl-ethylene] | 0.7 mg/kg | 0.2 mg/kg
CNC/C=C(/Oc1ccccc1)c1ccc2c(c1)OCO2 [H H 3,4-OCH2 O H CH3 E, α-phenoxy-α-(3,4-methylenedioxyphenyl)-β-methylaminomethyl-ethylene] | 1 mg/kg | 1.4 mg/kg
CNC/C=C(\Oc1ccccc1)c1ccc2c(c1)OCO2 [H H 3,4-OCH2 O H CH3 Z, α-phenoxy-α-(3,4-methylenedioxyphenyl)-β-methylaminomethyl-ethylene] | 2.2 mg/kg | 2.4 mg/kg
CN(C)C/C=C(\Oc1ccccc1)c1ccccc1 [H H H H CH3 CH3 Z, (Z)α-phenoxy-α-phenyl-β-dimethylaminomethyl-ethylene] | 0.5 mg/kg | 1.4 mg/kg
CNC/C=C(\Oc1ccccc1)c1ccccc1 [H H H H H CH3 Z, (Z)α-phenoxy-α-phenyl-β-methylaminomethyl-ethylene] | 0.8 mg/kg | 0.8 mg/kg
CN(C)CCCN1c2ccccc2CCc2ccccc21 [IMIPRAMINE, reference compound] | 24.1 mg/kg | 10.2 mg/kg
